These results are taken from ChEMBL document CHEMBL4350984, “Natural products as multidrug resistance modulators in cancer” (Eur J Med Chem, 2019).

For assay [1], the species on record is Homo sapiens. The experiment in a line: Inhibition of BCRP-mediated mitoxantrone efflux in human NCI-H460/MX20 cells assessed as mitoxantrone accumulation at 20 uM after 15 mins by Hoechst 33342 staining based flow cytometry analysis relative to control. The assay is classed as cell-based. Also noted: scale not given: the % may be the effect or the level left. (Flow cytometry measures light scatter and fluorescence of single cells or particles in a stream.)

For assay [2], the species on record is Homo sapiens. The experiment in a line: Inhibition of BCRP-mediated mitoxantrone efflux in human NCI-H460/MX20 cells assessed as mitoxantrone accumulation at 10 uM after 15 mins by Hoechst 33342 staining based flow cytometry analysis relative to control. Details: scale not given: the % may be the effect or the level left. Format: cell-based.
Assay [3] is described as follows: Cytotoxicity against human KBv200 cells assessed as reduction in cell viability. The assay is classed as functional, cell-based.
Assay [4] in a line: cells. Particulars: Homo sapiens, 72 h.
Description: Downregulation of ABCB1 gene expression in human EPG85-257RDB cells after 72 hrs by RT-PCR analysis

For `COC(=O)c1c(-c2ccc(O)cc2)c(-c2ccc(O)cc2)cn1CC(=O)c1ccc(OC)cc1`, in assay [1], the Activity is 94.5%.

Take `COc1ccc2c3c([nH]c2c1)[C@H](C=C(C)C)N1C(=O)[C@@H]2CCCN2C(=O)[C@@H]1C3`: the Activity in assay [2] came out at 100%.

By IC50 is commonly meant the concentration that gives 50% inhibition. For `COc1ccc2cc1Oc1ccc(cc1)C[C@H]1c3cc(c(OC)cc3CCN1C)Oc1c(OC)c(OC)cc3c1[C@H](C2)N(C)CC3` [FANCHININ], the IC50 in assay [3] amounted to 2 µM.

Consider `O=c1c(O)c(-c2ccc(O)c(O)c2)oc2cc(O)cc(O)c12` [QUERCETIN], for which, in assay [4], the IC50 was 12 µM.
